In US12077503B2, “Substituted cyclic amides and their use as herbicides” (FMC CORPORATION, priority 2015, dated 2024):

Experiments:
Type in all cases: in vivo
[1] = tested on: ivy-leaved morning glory (Ipomoea hederacea); assay: Test G Post-Emergence Protocol; conditions: Ipomoea, post-emergence, 312 h; for pest or weed control at 15.625 g/ha: 15.625 g ai/ha, evaluated after 13 days (100=total damage to plant; 0=no damage to plant), read-out: Morningglory, Ivy-leaved damage rating; for pest or weed control at 62.5 g/ha: 62.5 g ai/ha, read-out: Morningglory, Ivy-leaved damage rating (100=total damage to plant; 0=no damage to plant); for pest or weed control at 62.5 g/ha / pest or weed control at 250 g/ha: evaluated after 13 days; for pest or weed control at 250 g/ha: 250 g ai/ha, read-out: damage to plant, Morningglory, Ivy-leaved (100=total damage to plant; 0=no damage to plant)
Procedure, shortened: (§1)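 Seedlings grown 8 days in soil in a glasshouse (24/16 °C day/night, 14 h light, 65% humidity) were sprayed post-emergence with compound in acetone/water 50:50 plus 0.5% Tween 20 at 15.625, 62.5 or 250 g/ha. Damage was scored after 13 days on a 0–100 scale (100 = total damage).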

[2] = tested on: corn (Zea mays); assay: Test G Post-Emergence Protocol; conditions: Zea mays, post-emergence, 312 h; for plant injury at 15.625 g/ha: 15.625 g ai/ha, evaluated after 13 days (100=total damage to plant; 0=no damage to plant), read-out: Corn damage rating; for plant injury at 62.5 g/ha: 62.5 g ai/ha, read-out: Corn damage rating (100=total damage to plant; 0=no damage to plant); for plant injury at 62.5 g/ha / plant injury at 250 g/ha: evaluated after 13 days; for plant injury at 250 g/ha: 250 g ai/ha, read-out: damage to plant, Corn (100=total damage to plant; 0=no damage to plant)
Procedure, shortened: as §1

[3] = tested on: redroot pigweed (Amaranthus retroflexus); assay: Test G Post-Emergence Protocol; conditions: Amaranthus retroflexus, post-emergence, 312 h; for pest or weed control at 15.625 g/ha: 15.625 g ai/ha, evaluated after 13 days (100=total damage to plant; 0=no damage to plant), read-out: Pigweed, Redroot damage rating; for pest or weed control at 62.5 g/ha: 62.5 g ai/ha, read-out: Pigweed, Redroot damage rating (100=total damage to plant; 0=no damage to plant); for pest or weed control at 62.5 g/ha / pest or weed control at 250 g/ha: evaluated after 13 days; for pest or weed control at 250 g/ha: 250 g ai/ha, read-out: damage to plant, Pigweed, Redroot (100=total damage to plant; 0=no damage to plant)
Procedure, shortened: as §1

[4] = tested on: giant foxtail (Setaria faberi); assay: Test G Post-Emergence Protocol; conditions: Setaria faberi, post-emergence, 312 h; for pest or weed control at 15.625 g/ha: 15.625 g ai/ha, evaluated after 13 days (100=total damage to plant; 0=no damage to plant), read-out: Foxtail, Giant damage rating; for pest or weed control at 62.5 g/ha: 62.5 g ai/ha, read-out: Foxtail, Giant damage rating (100=total damage to plant; 0=no damage to plant); for pest or weed control at 62.5 g/ha / pest or weed control at 250 g/ha: evaluated after 13 days; for pest or weed control at 250 g/ha: 250 g ai/ha, read-out: damage to plant, Foxtail, Giant (100=total damage to plant; 0=no damage to plant)
Procedure, shortened: as §1

[5] = tested on: barnyardgrass (Echinochloa crus-galli); assay: Test G Post-Emergence Protocol; conditions: Echinochloa crus-galli, post-emergence, 312 h; for pest or weed control at 15.625 g/ha: 15.625 g ai/ha, evaluated after 13 days (100=total damage to plant; 0=no damage to plant), read-out: Barnyardgrass damage rating; for pest or weed control at 62.5 g/ha: 62.5 g ai/ha, read-out: Barnyardgrass damage rating (100=total damage to plant; 0=no damage to plant); for pest or weed control at 62.5 g/ha / pest or weed control at 250 g/ha: evaluated after 13 days; for pest or weed control at 250 g/ha: 250 g ai/ha, read-out: damage to plant, Barnyardgrass (100=total damage to plant; 0=no damage to plant)
Procedure, shortened: as §1

[6] = tested on: velvetleaf (Abutilon theophrasti); assay: Test G Post-Emergence Protocol; conditions: Abutilon theophrasti, post-emergence, 312 h; for pest or weed control at 15.625 g/ha: 15.625 g ai/ha, evaluated after 13 days (100=total damage to plant; 0=no damage to plant), read-out: Velvetleaf damage rating; for pest or weed control at 62.5 g/ha: 62.5 g ai/ha, read-out: Velvetleaf damage rating (100=total damage to plant; 0=no damage to plant); for pest or weed control at 62.5 g/ha / pest or weed control at 250 g/ha: evaluated after 13 days; for pest or weed control at 250 g/ha: 250 g ai/ha, read-out: damage to plant, Velvetleaf (100=total damage to plant; 0=no damage to plant)
Procedure, shortened: as §1

[7] = tested on: ivy-leaved morning glory (Ipomoea hederacea); assay: Test G Pre-Emergence Protocol; conditions: Ipomoea, pre-emergence, 312 h, evaluated after 13 days; for pest or weed control at 15.625 g/ha: 15.625 g ai/ha, read-out: Morning-glory, Ivy-leaved damage rating (100=total damage to plant; 0=no damage to plant); for pest or weed control at 62.5 g/ha: 62.5 g ai/ha, 100=total damage to plant, 0=no damage to plant, read-out: plant damage rating, Morningglory, Ivy-leaved; for pest or weed control at 250 g/ha: 250 g ai/ha, read-out: Morningglory, Ivy-leaved damage rating (100=total damage to plant; 0=no damage to plant)
Procedure, shortened: (§2)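 Scores are visual damage ratings from 0 (no damage) to 100 (total plant kill), taken 13 days after treatment. Compound was sprayed one day post-sowing at 15.625, 62.5 or 250 g/ha in 50:50 acetone/water with 0.5% Tween 20.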

[8] = tested on: corn (Zea mays); assay: Test G Pre-Emergence Protocol; conditions: Zea mays, pre-emergence, 312 h, evaluated after 13 days; for plant injury at 15.625 g/ha: 15.625 g ai/ha; for plant injury at 15.625 g/ha / plant injury at 250 g/ha: read-out: Corn damage rating (100=total damage to plant; 0=no damage to plant); for plant injury at 62.5 g/ha: 62.5 g ai/ha, 100=total damage to plant, 0=no damage to plant, read-out: plant damage rating, Corn; for plant injury at 250 g/ha: 250 g ai/ha
Procedure, shortened: as §2

[9] = tested on: redroot pigweed (Amaranthus retroflexus); assay: Test G Pre-Emergence Protocol; conditions: Amaranthus retroflexus, pre-emergence, 312 h, evaluated after 13 days; for pest or weed control at 15.625 g/ha: 15.625 g ai/ha; for pest or weed control at 15.625 g/ha / pest or weed control at 250 g/ha: read-out: Pigweed, Redroot damage rating (100=total damage to plant; 0=no damage to plant); for pest or weed control at 62.5 g/ha: 62.5 g ai/ha, 100=total damage to plant, 0=no damage to plant, read-out: plant damage rating, Pigweed, Redroot; for pest or weed control at 250 g/ha: 250 g ai/ha
Procedure, shortened: as §2

[10] = tested on: giant foxtail (Setaria faberi); assay: Test G Pre-Emergence Protocol; conditions: Setaria faberi, pre-emergence, 312 h, evaluated after 13 days; for pest or weed control at 15.625 g/ha: 15.625 g ai/ha; for pest or weed control at 15.625 g/ha / pest or weed control at 250 g/ha: read-out: Foxtail, Giant damage rating (100=total damage to plant; 0=no damage to plant); for pest or weed control at 62.5 g/ha: 62.5 g ai/ha, 100=total damage to plant, 0=no damage to plant, read-out: plant damage rating, Foxtail, Giant; for pest or weed control at 250 g/ha: 250 g ai/ha
Procedure, shortened: as §2

[11] = tested on: barnyardgrass (Echinochloa crus-galli); assay: Test G Pre-Emergence Protocol; conditions: Echinochloa crus-galli, pre-emergence, 312 h, evaluated after 13 days; for pest or weed control at 15.625 g/ha: 15.625 g ai/ha, read-out: Barnyard grass damage rating (100=total damage to plant; 0=no damage to plant); for pest or weed control at 62.5 g/ha: 62.5 g ai/ha, 100=total damage to plant, 0=no damage to plant, read-out: plant damage rating, Barnyardgrass; for pest or weed control at 250 g/ha: 250 g ai/ha, read-out: Barnyardgrass damage rating (100=total damage to plant; 0=no damage to plant)
Procedure, shortened: as §2

[12] = tested on: velvetleaf (Abutilon theophrasti); assay: Test G Pre-Emergence Protocol; conditions: Abutilon theophrasti, pre-emergence, 312 h, evaluated after 13 days; for pest or weed control at 15.625 g/ha: 15.625 g ai/ha; for pest or weed control at 15.625 g/ha / pest or weed control at 250 g/ha: read-out: Velvetleaf damage rating (100=total damage to plant; 0=no damage to plant); for pest or weed control at 62.5 g/ha: 62.5 g ai/ha, 100=total damage to plant, 0=no damage to plant, read-out: plant damage rating, Velvetleaf; for pest or weed control at 250 g/ha: 250 g ai/ha
Procedure, shortened: as §2

## CN1C[C@@H](c2ccc(C(F)(F)F)cc2)[C@H](C(=O)Nc2ccn(C)n2)C1=O (racemic) [Compound 1615]
[1]
  pest or weed control at 15.625 g/ha: 0%
  pest or weed control at 62.5 g/ha: 0%
  pest or weed control at 250 g/ha: 0%
[2]
  plant injury at 15.625 g/ha: 0%
  plant injury at 62.5 g/ha: 0%
  plant injury at 250 g/ha: 0%
[3]
  pest or weed control at 15.625 g/ha: 0%
  pest or weed control at 62.5 g/ha: 0%
  pest or weed control at 250 g/ha: 0%
[4]
  pest or weed control at 15.625 g/ha: 0%
  pest or weed control at 62.5 g/ha: 0%
  pest or weed control at 250 g/ha: 0%
[5]
  pest or weed control at 15.625 g/ha: 0%
  pest or weed control at 62.5 g/ha: 0%
  pest or weed control at 250 g/ha: 0%
[6]
  pest or weed control at 15.625 g/ha: 0%
  pest or weed control at 62.5 g/ha: 0%
  pest or weed control at 250 g/ha: 0%
[7]
  pest or weed control at 15.625 g/ha: 0%
  pest or weed control at 62.5 g/ha: 0%
  pest or weed control at 250 g/ha: 0%
[8]
  plant injury at 15.625 g/ha: 0%
  plant injury at 62.5 g/ha: 0%
  plant injury at 250 g/ha: 0%
[9]
  pest or weed control at 15.625 g/ha: 0%
  pest or weed control at 62.5 g/ha: 0%
  pest or weed control at 250 g/ha: 0%
[10]
  pest or weed control at 15.625 g/ha: 0%
  pest or weed control at 62.5 g/ha: 0%
  pest or weed control at 250 g/ha: 0%
[11]
  pest or weed control at 15.625 g/ha: 0%
  pest or weed control at 62.5 g/ha: 0%
  pest or weed control at 250 g/ha: 0%
[12]
  pest or weed control at 15.625 g/ha: 0%
  pest or weed control at 62.5 g/ha: 0%
  pest or weed control at 250 g/ha: 0%

## CN1C[C@@H](c2ccc(C(F)(F)F)cc2)[C@H](C(=O)Nc2nnnn2C)C1=O (racemic) [Compound 1618]
[1]
  pest or weed control at 15.625 g/ha: 0%
  pest or weed control at 62.5 g/ha: 0%
  pest or weed control at 250 g/ha: 0%
[2]
  plant injury at 15.625 g/ha: 0%
  plant injury at 62.5 g/ha: 0%
  plant injury at 250 g/ha: 0%
[3]
  pest or weed control at 15.625 g/ha: 0%
  pest or weed control at 62.5 g/ha: 0%
  pest or weed control at 250 g/ha: 0%
[4]
  pest or weed control at 15.625 g/ha: 0%
  pest or weed control at 62.5 g/ha: 0%
  pest or weed control at 250 g/ha: 0%
[5]
  pest or weed control at 15.625 g/ha: 0%
  pest or weed control at 62.5 g/ha: 0%
  pest or weed control at 250 g/ha: 0%
[6]
  pest or weed control at 15.625 g/ha: 0%
  pest or weed control at 62.5 g/ha: 0%
  pest or weed control at 250 g/ha: 0%
[7]
  pest or weed control at 15.625 g/ha: 0%
  pest or weed control at 62.5 g/ha: 0%
  pest or weed control at 250 g/ha: 20%
[8]
  plant injury at 15.625 g/ha: 0%
  plant injury at 62.5 g/ha: 0%
  plant injury at 250 g/ha: 20%
[9]
  pest or weed control at 15.625 g/ha: 0%
  pest or weed control at 62.5 g/ha: 0%
  pest or weed control at 250 g/ha: 20%
[10]
  pest or weed control at 15.625 g/ha: 0%
  pest or weed control at 62.5 g/ha: 0%
  pest or weed control at 250 g/ha: 20%
[11]
  pest or weed control at 15.625 g/ha: 0%
  pest or weed control at 62.5 g/ha: 0%
  pest or weed control at 250 g/ha: 10%
[12]
  pest or weed control at 15.625 g/ha: 0%
  pest or weed control at 62.5 g/ha: 0%
  pest or weed control at 250 g/ha: 10%
